From patent publication US9765035B2 (priority 2013, dated 2017) come the findings set out here.

One test deals with human PRMT6 (Homo sapiens, UniProt Q96LA8). The experiment in a line: biochemical. From the text: General Materials. S-adenosylmethionine (SAM), S-adenosylhomocysteine (SAH), bicine, Tween20, dimethylsulfoxide (DMSO), bovine skin gelatin (BSG), sodium butyrate and Tris(2-carboxyethyl)phosphine hydrochloride solution (TCEP) were purchased from Sigma-Aldrich at the highest level of purity possible. ^3H-SAM was purchase from American Radiolabeled Chemicals with a specific activity of 80 Ci/mmol. 384-well streptavidin Flashplates were purchased from PerkinElmer.
Chain of human PRMT6 (Q96LA8 with tags, fused parts or gaps): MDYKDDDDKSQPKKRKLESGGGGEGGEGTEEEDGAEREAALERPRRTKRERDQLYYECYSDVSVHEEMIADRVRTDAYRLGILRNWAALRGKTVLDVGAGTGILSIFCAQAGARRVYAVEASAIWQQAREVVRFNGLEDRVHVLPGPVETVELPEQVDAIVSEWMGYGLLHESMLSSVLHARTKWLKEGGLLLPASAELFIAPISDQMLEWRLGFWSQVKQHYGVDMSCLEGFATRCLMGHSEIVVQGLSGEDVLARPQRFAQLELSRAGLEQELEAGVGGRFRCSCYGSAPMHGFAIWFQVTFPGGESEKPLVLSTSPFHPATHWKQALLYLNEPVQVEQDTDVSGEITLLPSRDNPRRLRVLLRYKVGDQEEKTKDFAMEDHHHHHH
Substrates. Peptide representative of human histone H4 residues 36-50 was synthesized with an N-terminal linker-affinity tag motif and a C-terminal amide cap by 21st Century Biochemicals. The peptide was purified by high-performance liquid chromatography (HPLC) to greater than 95% purity and confirmed by liquid chromatography mass spectrometry (LC-MS). The sequence was Biot-Ahx-[…]-amide and contained a monomethylated lysine at position 44 (SEQ ID NO.:5).
Molecular Biology: Full-length human PRMT6 (NM_018137.2) transcript clone was amplified from an HEK 293 cDNA library, incorporating a flanking 5′ sequence encoding a FLAG tag ([…]) (SEQ ID NO.:6) fused directly to Ser 2 of PRMT6 and a 3′ sequence encoding a hexa His sequence (HHHHHH) (SEQ ID NO.: 17) fused directly to Asp 375. The amplified gene was subcloned into pFastBacMam (Viva Biotech).
Protein Expression. Recombinant baculovirus were generated according to Bac-to-Bac kit instructions (Life Technologies). […] Infections were carried out at 37° C. for 48 hours, harvested by centrifugation, and stored at −80° C. for purification.
Protein Purification. […] Column was washed with 20 mM imidazole in the same buffer and Flag-PRMT6-His was eluted with 150 mM imidazole. Pooled fractions were dialysed against buffer Ni-A and further purified by anti-flag M2 affinity chromatography. Flag-PRMT6-His was eluted with 200 ug/ml FLAG peptide in the same buffer. Pooled fractions were dialysed in 20 mM Tris, 150 mM NaCl, 10% glycerol and 5 mM β-mercaptoethanol, pH 7.8. The purity of recovered protein was 95%.
General Procedure for PRMT6 Enzyme Assays on Peptide Substrates. The assays were all performed in a buffer consisting of 20 mM Bicine (pH=7.6), 1 mM TCEP, 0.005% BSG, and 0.002% Tween 20, prepared on the day of use. Compounds in 100% DMSO (1 ul) were spotted into a polypropylene 384-well V-bottom plates (Greiner) using a Platemate Plus outfitted with a 384-channel head (Thermo Scientific). DMSO (1 ul) was added to Columns 11, 12, 23, 24, rows A-H for the maximum signal control and 1 ul of SAH, a known product and inhibitor of PRMT6, was added to columns 11, 12, 23, 24, rows I-P for the minimum signal control. A cocktail (40 ul) containing the PRMT6 enzyme was added by Multidrop Combi (Thermo-Fisher). The compounds were allowed to incubate with PRMT6 for 30 min at room temperature, then a cocktail (10 ul) containing SAM and peptide was added to initiate the reaction (final volume=51 ul). The final concentrations of the components were as follows: PRMT6 was 1 nM, ^3H-SAM was 200 nM, non-radiolabeled SAM was 250 nM, peptide was 75 nM, SAH in the minimum signal control wells was 1 mM, and the DMSO concentration was 2%. The assays were stopped by the addition of non-radiolabeled SAM (10 ul) to a final concentration of 400 uM, which dilutes the ^3H-SAM to a level where its incorporation into the peptide substrate is no longer detectable. 50 ul of the reaction in the 384-well polypropylene plate was then transferred to a 384-well Flashplate and the biotinylated peptides were allowed to bind to the streptavidin surface for at least 1 hour before being washed once with 0.1% Tween20 in a Biotek EL×405 plate washer. The plates were then read in a PerkinElmer TopCount plate reader to measure the quantity of ^3H-labeled peptide bound to the Flashplate surface, measured as disintegrations per minute (dpm) or alternatively, referred to as counts per minute (cpm). […]

Test [1] relates to RKO cells, mono-methyl arginine. The experiment in a line: RKO Methylation Assay (In Cell Western for mono-methyl arginine). The format is cell-based. The settings on record: Homo sapiens, 72 hours. From the text:
RKO adherent cells were purchased from ATCC (American Type Culture Collection), Manassas, Va., USA. DMEM/Glutamax medium, penicillin-streptomycin, heat inactivated fetal bovine serum, 0.05% trypsin and D-PBS were purchased from Life Technologies, Grand Island, N.Y., USA. Odyssey blocking buffer, 800CW goat anti-rabbit IgG (H+L) antibody, and Licor Odyssey infrared scanner were purchased from Licor Biosciences, Lincoln, Nebr., USA. Mono-methyl arginine antibody was purchased from Cell Signaling Technology, Danvers, Mass., USA. Methanol was purchased from VWR, Franklin, Mass., USA. 10% Tween 20 was purchased from KPL, Inc., Gaithersburg, Md., USA. DRAQ5 was purchased from Biostatus Limited, Leicestershire, UK.
RKO adherent cells were maintained in growth medium (DMEM/Glutamax medium supplemented with 10% v/v heat inactivated fetal bovine serum and 100 units/mL penicillin-streptomycin) and cultured at 37° C. under 5% CO2.
Cell Treatment, in Cell Western (ICW) for Detection of Mono-Methyl Arginine and DNA Content. […] Compound (100 nL) from a 96-well source plate was added directly to 384 well cell plate. Plates were incubated at 37° C., 5% CO2 for 72 hours. After three days of incubation, plates were brought to room temperature outside of the incubator for ten minutes and blotted on paper towels to remove cell media. 50 μL of ice cold 100% methanol was added directly to each well and incubated for 30 min at room temperature. After 30 min, plates were transferred to a Biotek EL406 plate washer and washed 2 times with 100 μL per well of wash buffer (1×PBS). Next 60 μL per well of Odyssey blocking buffer (Odyssey Buffer with 0.1% Tween 20 (v/v)) were added to each plate and incubated 1 hour at room temperature. Blocking buffer was removed and 20 μL per well of primary antibody was added (mono-methyl arginine diluted 1:200 in Odyssey buffer with 0.1% Tween 20 (v/v)) and plates were incubated overnight (16 hours) at 4° C. Plates were washed 5 times with 100 μL per well of wash buffer. […] The plates were washed 5 times with 100 μL per well wash buffer then 2 times with 100 μL per well of water. Plates were allowed to dry at room temperature then imaged on the Licor Odyssey machine which measures integrated intensity at 700 nm and 800 nm wavelengths. Both 700 and 800 channels were scanned.
Calculations: First, the ratio for each well was determined by:
Each plate included fourteen control wells of DMSO only treatment (minimum activation) as well as fourteen control wells for maximum activation treated with 20 μM of a reference compound. The average of the ratio values for each control type was calculated and used to determine the percent activation for each test well in the plate. Reference compound was serially diluted three-fold in DMSO for a total of nine test concentrations, beginning at 20 μM. Percent activation was determined and EC30 curves were generated using triplicate wells per concentration of compound.

Like-named read-outs stand apart in the source and are kept apart here.

For `CNCCN(C)Cc1n[nH]c2ccc(OC(C)C(C)C)cc12` (stereo not shown) [Compound 4], the IC50 at human PRMT6 (biochemical evaluation, peptide substrate, read-out: PRMT6 IC50) is less than 100 nM; at human PRMT6 (single experiment or average of multiple experiments, read-out: PRMT6 biochemical evaluation (numerical)) it was 36.4 nM. Besides, the EC30 in test [1] (In Cell Western EC30, RKO cells, single experiment or average of multiple experiments, read-out: RGG ICW) is 1680 nM; in test [1] (In Cell Western, RKO cells, read-out: RGG ICW EC30), less than 3000 nM.
